Experimental data as given in PMC9221509, “Discovery of a Novel Antimicrobial Peptide, Temporin-PKE, from the Skin Secretion of Pelophylax kl. esculentus, and Evaluation of Its Structure-Activity Relationships” (Biomolecules, 2022).
Where two headings read alike, the source gives them in different places. Non-standard residues stand in square brackets, D forms with d. Residues, ends and D or L forms follow the SMILES beside them. No end group written: not given here.

How the values were obtained:
E. coli (ATCC CRM 8739) = assay: microbe, parasite or virus in culture; format: cell-based, Escherichia coli; conditions: for MBC: ATCC CRM 8739, 18 h; for MIC: ATCC CRM 8739, 24 h
Description: The antimicrobial activities of peptides were evaluated against the Gram-positive bacteria, S. aureus (ATCC 6538), methicillin-resistant Staphylococcus aureus (MRSA) (NCTC 12493), Enterococcus faecalis (E. faecalis) (NCTC 12697); the Gram-negative bacteria, E. coli (ATCC CRM 8739), Klebsiella pneumoniae (K. pneumoniae) (ATCC 43816), Pseudomonas aeruginosa (P. aeruginosa) (ATCC CRM 9027); and the yeast, Candida albicans (C. albicans) (ATCC CRM 10231). Clinical isolates of MRSA (B042 V2E1 A), E. coli (ATCC BAA-2340), K. pneumoniae (ATCC BAA-1705), and P. aeruginosa (B004 V2S2 B) were also used to determine their antimicrobial activities. The suspension of microorganisms in the logarithmic growth phase with a specific final density (Gram-negative and Gram-positive bacteria: 5 × 10^5 CFU/mL; yeast: 1 × 10^6 CFU/mL) was incubated with different peptide concentrations from 1 µM to 512 µM at 37 °C for 24 h. PBS was used as the negative control, and norfloxacin and amphotericin B were selected as the positive control for bacteria and yeast, respectively. Since the Norfloxacin had weak activities against P. aeruginosa (B004 V2S2 B) and K. pneumoniae (ATCC BAA 1705), gentamicin was used as the positive control for these two bacterial strains. The absorbance of each well was obtained using a microplate reader (EL808, Biolise BioTek, Winooski, VT, USA) set at 550 nm wavelength. The MIC value was the lowest concentration of a peptide that inhibits visible bacterial growth. Once the MIC values were determined, an aliquot from the bacterial culture exposed to the peptide at or above its MIC value was inoculated on a Mueller Hinton agar (MHA) and was incubated at 37 for 18 h. The MBC value was the lowest concentration of a peptide that kills 99.9% of bacteria.

wax moth larvae = assay: Toxicity in wax moth larvae (uninfected); format: in vivo, Galleria mellonella; conditions: n = 9 in each group
Description: The antimicrobial activities of temporin-PKE and temporin-PKE-3K, in vivo, were studied in the wax moth larvae model. Wax moth larvae (Livefood UK Ltd., Rooks Bridge, UK), weighing 250 ± 25 mg, were divided into different groups (n = 9 in each group). […] After 2 h of exposure, 10 µL of peptide solution, with concentrations of 4, 8, and 16 mg/kg, was injected into the larvae in each group. PBS was utilised as the negative control, and 50 mg/kg vancomycin was selected as the positive control for MRSA. The survival rates of the larvae were recorded every 12 h for 120 h.

| Compound | MBC (E. coli (ATCC CRM 8739)) [µM] | MIC (E. coli (ATCC CRM 8739)) [µM] | MBC (E. coli (ATCC CRM 8739); read-out: MBC) [µM] | MIC (E. coli (ATCC CRM 8739); read-out: MIC) [µM] | survival of larvae injected with peptide (wax moth larvae; doses of 16 mg/kg) | mortality of larvae treated with peptide (wax moth larvae; highest test concentration, late stage) [%] |
| --- | --- | --- | --- | --- | --- | --- |
| FLPLIIGALSSKLPKIF-NH2 [Temporin-PKE-K12] | 8 | 8 | – | – | – | – |
| CC[C@@H](C)[C@@H](NC(=O)[C@H](CCCCN)NC(=O)[C@@H]1CCCN1C(=O)[C@H](CC(C)C)NC(=O)[C@H](CC(C)C)NC(=O)[C@H](CO)NC(=O)[C@H](CO)NC(=O)[C@H](CC(C)C)NC(=O)[C@H](C)NC(=O)CNC(=O)[C@H](NC(=O)[C@H](NC(=O)[C@H](CC(C)C)NC(=O)[C@@H]1CCCN1C(=O)[C@H](CC(C)C)NC(=O)[C@@H](N)Cc1ccccc1)[C@H](C)CC)[C@H](C)CC)C(=O)N[C@@H](Cc1ccccc1)C(N)=O [Temporin-PKE-3i] (H-FLPL[dI][dI]GALSSLLPK[dI]F-NH2) | – | – | >512 | >512 | – | – |
| FLPKIIGKLSSLLPKIF-NH2 [Temporin-PKE-3K] | 2 | 2 | – | – | totally survived | – |
| FLPLIIGKLSSLLPKIF-NH2 [Temporin-PKE-2K] | 4 | 4 | – | – | – | – |
| CC[C@@H](C)[C@@H](NC(=O)[C@H](CCCCN)NC(=O)[C@@H]1CCCN1C(=O)[C@H](CC(C)C)NC(=O)[C@H](CC(C)C)NC(=O)[C@H](CO)NC(=O)[C@H](CO)NC(=O)[C@H](CC(C)C)NC(=O)[C@H](C)NC(=O)CNC(=O)[C@@H](NC(=O)[C@@H](NC(=O)[C@H](CC(C)C)NC(=O)[C@@H]1CCCN1C(=O)[C@H](CC(C)C)NC(=O)[C@@H](N)Cc1ccccc1)[C@@H](C)CC)[C@@H](C)CC)C(=O)N[C@@H](Cc1ccccc1)C(N)=O [Temporin-PKE-i] (H-FLPLIIGALSSLLPK[dI]F-NH2) | – | – | >512 | >512 | – | – |
| FLPLIIGALSSLLPKIF-NH2 [Temporin-PKE] | – | – | >512 | >512 | – | 50 |
| FLPKIIGKLSSKLPKIF-NH2 [Temporin-PKE-4K] | 4 | 4 | – | – | – | – |
